Values of other authors, collected in patent US12091679B2, “Storage method and banking system of NT cell” (SUNGKWANG MEDICAL FOUNDATION, priority 2015, dated 2024).

System: various animal cancer models

Row | Compound | anticancer activity
1 | CC(C)N(C[C@H]1O[C@@H](n2cnc3c(N)ncnc32)[C@H](O)[C@@H]1O)[C@H]1C[C@@H](CCc2nc3cc(C(C)(C)C)ccc3[nH]2)C1 [EPZ5676] | show anticancer activity
2 | Cc1cc(C)c(CNC(=O)c2cc(-c3ccc(CN4CCOCC4)cc3)cc3c2cnn3C2CCCC2)c(=O)[nH]1 [EPZ005687] | show anticancer activity
3 | CC[C@H](C)n1cc(C)c2c(C(=O)NCc3c(C)cc(C)[nH]c3=O)cc(-c3ccc(N4CCNCC4)nc3)cc21 [GSK126] | show anticancer activity
